Test system: tropical house mosquito Culex quinquefasciatus (adults, 3 days old)
Assay: Efficacy of formulations on surfaces (glazed/unglazed tiles, plywood), ten 3 day old mosquitoes, 3 min exposure
Format: in vivo
Details: for efficacy enhancement of the insecticide by the additive (summary in words): Culex quinquefasciatus, 3 min exposure, mostly 0.1% bendiocarb + 1% additive on glazed tiles, details as worded
Protocol: The ingredients were diluted in acetone to give a concentration which corresponds to the desired quantity of a.i./m^2. A 1 ml quantity of the solution was applied by pipette onto the 15 cm×15 cm surfaces without treating the outer edge of 1 cm.
(§1) Ten 3 day old Culex quinquefasciatus mosquitoes were exposed to each treatment for 3 minutes under a perforated petri dish, and then a clean untreated white paper index card was moved between treated surface and petri dish. A water-soaked cotton pad was applied immediately after.
Each test consisted of three replicates (three batches of ten mosquitoes were exposed for three minutes to the same surface, each one hour later), of which the mean values are calculated.
The test insects were Culex quinquefasciatus (adults, 3 days old). The compositions were evaluated for their ability to provide effective knock down after 3, 9, 15, and 30 minutes, 1, 2, 3, 4 and 24 hours (mortality). The experiments were performed in triplicate on glazed tile, but not repeated on wood.
Test Insects are Culex quinquefasciatus (adults, 3 days old). The Application provides the technical compounds were dissolved in acetone and applied as 1 ml solutions onto glazed tiles (15 cm×15 cm). An evaluation is provided at knock down after 3, 9, 15, and 30 minutes, 1, 2, 3, 4 and 24 hours (mortality). There are 3 replicates.
Test Insects: Culex quinquefasciatus (adults, 3 days old)
Application: The technical compounds were dissolved in acetone and applied as 1 ml solutions onto glazed tiles (15 cm×15 cm).
Evaluation: Knock down after 3, 9, 15, and 30 minutes, 1, 2, 3, 4 and 24 hours (mortality) […]
Application: The active ingredients were applied as 1 ml acetone solutions onto glazed tiles (15 cm×15 cm) […]
as §1, with “For the mosquitoes, the USDA Petri Dish Method is used. Ten” for “Ten”, “are” for “were”, “dish” for “dish,”, “is” for “was”, “after. […]” for “after.”

[1] = 3′, in acetone on glazed tiles, Table 84
[2] = 9′, in acetone on glazed tiles, Table 84
[3] = 15′, in acetone on glazed tiles, Table 84
[4] = 30′, in acetone on glazed tiles, Table 84
[5] = 1 h, in acetone on glazed tiles, Table 84
[6] = 2 h, in acetone on glazed tiles, Table 84
[7] = 3 h, in acetone on glazed tiles, Table 84
[8] = 4 h, in acetone on glazed tiles, Table 84
[9] = 24 h (mortality), in acetone on glazed tiles, Table 84

CC1(C)CC(OC(=O)CCCCCCCCC(=O)OC2CC(C)(C)NC(C)(C)C2)CC(C)(C)N1 [Derivative 6, Bis(2,2,6,6-tetramethyl-4-piperidyl)sebacate]
efficacy enhancement of the insecticide by the additive (summary in words): inhibited the efficacy of bendiocarb in both tests
efficacy enhancement of the insecticide by the additive (summary in words) (listed as bis(2,2,6,6-tetramethyl-4-piperidyl)sebacate): inhibited the efficacy of bendiocarb

CCCCCCCCON1C(C)(C)CC(OC(=O)CCCCCCCCC(=O)OC2CC(C)(C)N(OCCCCCCCC)C(C)(C)C2)CC1(C)C [Derivative 5, Bis(1-octyloxy-2,2,6,6-tetramethyl-4-piperidyl)sebacate]
efficacy enhancement of the insecticide by the additive (summary in words): weaker as Compound A in both tests
efficacy enhancement of the insecticide by the additive (summary in words) (listed as bis(1-octyloxy-2,2,6,6-tetramethyl-4-piperidyl)sebacate): inhibited the efficacy of bendiocarb

CCCCCCCCON1C(C)(C)CC(OC(=O)CCCCCCCCC(=O)OC2CC(C)(C)N(OCCCCCCCC)C(C)(C)C2)CC1(C)C
% KD and Mortality [1]: 3%
% KD and Mortality [2]: 3%
% KD and Mortality [3]: 3%
% KD and Mortality [4]: 3%
% KD and Mortality [5]: 3%
% KD and Mortality [6]: 3%
% KD and Mortality [7]: 3%
% KD and Mortality [8]: 3%
% KD and Mortality [9]: 7%

CC1(C)CC(O)CC(C)(C)N1[O]
% KD and Mortality [1]: 0%
% KD and Mortality [2]: 0%
% KD and Mortality [3]: 0%
% KD and Mortality [4]: 0%
% KD and Mortality [5]: 0%
% KD and Mortality [6]: 0%
% KD and Mortality [7]: 0%
% KD and Mortality [8]: 0%
% KD and Mortality [9]: 7%

CN1C(C)(C)CC(O)CC1(C)C [1% 1,2,2,6,6-Pentamethyl-4-piperidinol]
% KD and Mortality [1]: 0%
% KD and Mortality [2]: 0%
% KD and Mortality [3]: 0%
% KD and Mortality [4]: 0%
% KD and Mortality [5]: 0%
% KD and Mortality [6]: 0%
% KD and Mortality [7]: 0%
% KD and Mortality [8]: 0%
% KD and Mortality [9]: 0%

CC1(C)CC(O)CC(C)(C)N1
% KD and Mortality [1]: 0%
% KD and Mortality [2]: 0%
% KD and Mortality [3]: 0%
% KD and Mortality [4]: 0%
% KD and Mortality [5]: 0%
% KD and Mortality [6]: 0%
% KD and Mortality [7]: 0%
% KD and Mortality [8]: 0%
% KD and Mortality [9]: 3%

O=C(CCCCCCCCC(=O)OCc1ccccc1)OCc1ccccc1 [1% Sebacic acid dibenzyl ester]
% KD and Mortality [1]: 0%
% KD and Mortality [2]: 0%
% KD and Mortality [3]: 0%
% KD and Mortality [4]: 0%
% KD and Mortality [5]: 0%
% KD and Mortality [6]: 0%
% KD and Mortality [7]: 3%
% KD and Mortality [8]: 3%
% KD and Mortality [9]: 7%

CNC(=O)Oc1cccc2c1OC(C)(C)O2 [0.1% bendiocarb]
% KD and Mortality [1]: 0%
% KD and Mortality (3′, solvent 2006-009114 (EC formulation), glazed tiles, Table 83): 10%
% KD and Mortality (3′, solvent Acetone + 0.05% citric acid, glazed tiles, Table 83): 13%
% KD and Mortality (3′, solvent Acetone, glazed tiles, Table 83): 3%
% KD and Mortality (3′, solvent Ethylacetate, glazed tiles, Table 83): 0%
% KD and Mortality (3′, solvent Methanol, glazed tiles, Table 83): 0%
% KD and Mortality [2]: 0%
% KD and Mortality (9′, solvent 2006-009114 (EC formulation), glazed tiles, Table 83): 17%
% KD and Mortality (9′, solvent Acetone + 0.05% citric acid, glazed tiles, Table 83): 33%
% KD and Mortality (9′, solvent Acetone, glazed tiles, Table 83): 3%
% KD and Mortality (9′, solvent Ethylacetate, glazed tiles, Table 83): 3%
% KD and Mortality (9′, solvent Methanol, glazed tiles, Table 83): 0%
% KD and Mortality [3]: 3%
% KD and Mortality (15′, solvent 2006-009114 (EC formulation), glazed tiles, Table 83): 23%
% KD and Mortality (15′, solvent Acetone + 0.05% citric acid, glazed tiles, Table 83): 70%
% KD and Mortality (15′, solvent Acetone, glazed tiles, Table 83): 3%
% KD and Mortality (15′, solvent Ethylacetate, glazed tiles, Table 83): 7%
% KD and Mortality (15′, solvent Methanol, glazed tiles, Table 83): 0%
% KD and Mortality [4]: 17%
% KD and Mortality (30′, solvent 2006-009114 (EC formulation), glazed tiles, Table 83): 27%
% KD and Mortality (30′, solvent Acetone + 0.05% citric acid, glazed tiles, Table 83): 97%
% KD and Mortality (30′, solvent Acetone, glazed tiles, Table 83): 13%
% KD and Mortality (30′, solvent Ethylacetate, glazed tiles, Table 83): 27%
% KD and Mortality (30′, solvent Methanol, glazed tiles, Table 83): 13%
% KD and Mortality [5]: 50%
% KD and Mortality (1 h, solvent 2006-009114 (EC formulation), glazed tiles, Table 83): 43%
% KD and Mortality (1 h, solvent Acetone + 0.05% citric acid, glazed tiles, Table 83): 97%
% KD and Mortality (1 h, solvent Acetone, glazed tiles, Table 83): 77%
% KD and Mortality (1 h, solvent Ethylacetate, glazed tiles, Table 83): 50%
% KD and Mortality (1 h, solvent Methanol, glazed tiles, Table 83): 57%
% KD and Mortality [6]: 73%
% KD and Mortality (2 h, solvent 2006-009114 (EC formulation), glazed tiles, Table 83): 87%
% KD and Mortality (2 h, solvent Acetone + 0.05% citric acid, glazed tiles, Table 83): 97%
% KD and Mortality (2 h, solvent Acetone, glazed tiles, Table 83): 100%
% KD and Mortality (2 h, solvent Ethylacetate, glazed tiles, Table 83): 73%
% KD and Mortality (2 h, solvent Methanol, glazed tiles, Table 83): 73%
% KD and Mortality [7]: 80%
% KD and Mortality (3 h, solvent 2006-009114 (EC formulation), glazed tiles, Table 83): 93%
% KD and Mortality (3 h, solvent Acetone + 0.05% citric acid, glazed tiles, Table 83): 100%
% KD and Mortality (3 h, solvent Acetone, glazed tiles, Table 83): 100%
% KD and Mortality (3 h, solvent Ethylacetate, glazed tiles, Table 83): 70%
% KD and Mortality (3 h, solvent Methanol, glazed tiles, Table 83): 73%
% KD and Mortality [8]: 90%
% KD and Mortality (4 h, solvent 2006-009114 (EC formulation), glazed tiles, Table 83): 97%
% KD and Mortality (4 h, solvent Acetone + 0.05% citric acid, glazed tiles, Table 83): 100%
% KD and Mortality (4 h, solvent Acetone, glazed tiles, Table 83): 100%
% KD and Mortality (4 h, solvent Ethylacetate, glazed tiles, Table 83): 80%
% KD and Mortality (4 h, solvent Methanol, glazed tiles, Table 83): 73%
% KD and Mortality [9]: 100%
% KD and Mortality (24 h (mortality), solvent 2006-009114 (EC formulation), glazed tiles, Table 83): 97%
% KD and Mortality (24 h (mortality), solvent Acetone + 0.05% citric acid, glazed tiles, Table 83): 100%
% KD and Mortality (24 h (mortality), solvent Acetone, glazed tiles, Table 83): 100%
% KD and Mortality (24 h (mortality), solvent Ethylacetate, glazed tiles, Table 83): 80%
% KD and Mortality (24 h (mortality), solvent Methanol, glazed tiles, Table 83): 87%

Source: patent publication US9028856B2, “Synergistic pesticide compositions” (priority 2008, dated 2015)
